Experimental data taken from patent US20240358693A1, “METHODS OF TREATING PAIN” (Aisa Pharma, Inc., priority 2023, published 2024).

Tested on: participants with Raynaud's Phenomenon secondary mostly to systemic sclerosis (SSc-RP)
Assay: Frequency of weekly symptomatic RP attacks (patient diary), Phase 2a study Part A
Type: in vivo, human
Method: A randomized, placebo-controlled phase 2a study was performed and is in progress to assess the safety and efficacy of cilnidipine (10 mg and 20 mg) alone and in combination with 5 mg tadalafil, in participants with diagnosis of scleroderma and/or secondary Raynaud's disease.
The relevant metrics measured by this tool daily are: • Study medication • SSc-RP symptoms (Reporting an attack including duration of attack) • Severity of the attack considering all symptoms of the attack e.g., tingling, numbness, pain, color changes (VAS 0-10 cm scale) • Participant's location at the time of the attack (inside home/outside home) • Selecting symptoms experienced during the attack (tingling, numbness, pain, color changes, other) • Pain rating during the attack (11-point Likert scale) • The RCS based on how much difficulty participants had with Raynaud's today, how many attacks the participant had, and how long they lasted. Participants will also be asked to consider how much pain, numbness, or other symptoms the Raynaud's caused in fingers (including painful sores), and how much the Raynaud's alone affected the use of hands today (VAS 0-10 cm scale).
Percent change from baseline evaluation for frequency of weekly RP attacks were or will be used as the primary efficacy variable. The sponsor-developed participant-informed diary will be used to record data. Frequency of weekly RP attacks is defined as the total number of RP attacks divided by the number of days with available diary data within the last 7 days of each dosing period then multiplied by 7. Total number of RP attacks during the last 7 days of screening period divided by the number of days with available data then multiplied by 7 will be used as baseline for the analysis of all periods. The variable will be calculated as follows:
Percentage change={(weekly RP attacks for the last 7 days of each dosing period−Baseline weekly RP attacks)/Baseline weekly RP attacks}*100%.
Absolute change=weekly RP attacks for the last 7 days of each dosing period−Baseline weekly RP attacks
Percent change from baseline evaluation for frequency of weekly RP attacks was and will be the primary efficacy endpoint. Frequency of weekly RP attacks is defined as the total number of RP attacks divided by the number of days with available diary data within the last 7 days of each dosing period then multiplied by 7. Total number of RP attacks during the last 7 days of screening period divided by the number of days with available data then multiplied by 7 will be used as baseline for the analysis of all periods.
The following data was actually obtained in accordance with the protocol and plan delineated in Examples 1 and 2. The accompanying data involved 11 patients out of the planned 76 patient study. The study was done in patients with scleroderma (systemic sclerosis) who had relatively frequent Raynaud symptoms as they needed to average at least one attack per day during a screening period of up to two weeks. In this first phase of this double-blind placebo-controlled, prospective randomized study, patients were treated in parallel and after meeting study criteria were randomized to receive either placebo, cilnidipine 10 mg daily, cilnidipine 20 mg daily, tadalafil 5 mg daily, cilnidipine 10 mg plus 5 mg of tadalafil, or cilnidipine 20 mg plus 5 mg of tadalafil.

[1] = Tadalafil 5 mg (N = 2), ITT Part A
[2] = Tadalafil 5 mg, n 1, Excluding Outliers, ITT Part A
[3] = Tadalafil 5 mg, n 2, by Baseline RCS, 2nd block (RCS >5.0), ITT Part A
[4] = excluding outliers, by baseline RCS, second subgroup, cilnidipine 10 mg, tadalafil 5 mg daily

## CN1CC(=O)N2[C@H](c3ccc4c(c3)OCO4)c3[nH]c4ccccc4c3C[C@@H]2C1=O [Tadalafil, tadalafil]
[1]
  Weekly Symptomatic RP Attacks Change from Baseline, Mean: 4.50
  Weekly Symptomatic RP Attacks Change from Baseline, Median: 4.50
  Weekly Symptomatic RP Attacks Percent Change from Baseline, Mean: 62.50%
  Weekly Symptomatic RP Attacks Percent Change from Baseline, Median: 62.50%
  Weekly Symptomatic RP Attacks, Mean: 12.50
  Weekly Symptomatic RP Attacks, Median: 12.50
[2]
  Weekly Symptomatic RP Attacks Change from Baseline, Mean (SD): 6.00
  Weekly Symptomatic RP Attacks Change from Baseline, Median: 6.00
  Weekly Symptomatic RP Attacks Percent Change from Baseline, Mean (SD): 50.00%
  Weekly Symptomatic RP Attacks Percent Change from Baseline, Median: 50.00%
  Weekly Symptomatic RP Attacks, Mean (SD): 18.00
  Weekly Symptomatic RP Attacks, Median: 18.00
[3]
  Weekly Symptomatic RP Attacks Change from Baseline, Mean (SD): 4.50 (2.121)
  Weekly Symptomatic RP Attacks Change from Baseline, Median: 4.50
  Weekly Symptomatic RP Attacks Percent Change from Baseline, Mean (SD): 62.50 (17.678) %
  Weekly Symptomatic RP Attacks Percent Change from Baseline, Median: 62.50%
  Weekly Symptomatic RP Attacks, Mean (SD): 12.50 (7.778)
  Weekly Symptomatic RP Attacks, Median: 12.50
[4]
  Weekly Symptomatic RP Attacks Change from Baseline, Max: 6.0, 6.0
  Weekly Symptomatic RP Attacks Change from Baseline, Mean (SD): 6.00
  Weekly Symptomatic RP Attacks Change from Baseline, Median: 6.00
  Weekly Symptomatic RP Attacks Change from Baseline, Min: 6.0, 6.0
  Weekly Symptomatic RP Attacks Change from Baseline, Q1: 6.00, 6.00
  Weekly Symptomatic RP Attacks Change from Baseline, Q3: 6.00, 6.00
  Weekly Symptomatic RP Attacks Percent Change from Baseline, Max: 50.0, 50.0%
  Weekly Symptomatic RP Attacks Percent Change from Baseline, Mean (SD): 50.00%
  Weekly Symptomatic RP Attacks Percent Change from Baseline, Median: 50.00%
  Weekly Symptomatic RP Attacks Percent Change from Baseline, Min: 50.0, 50.0%
  Weekly Symptomatic RP Attacks Percent Change from Baseline, Q1: 50.00, 50.00%
  Weekly Symptomatic RP Attacks Percent Change from Baseline, Q3: 50.00, 50.00%
  Weekly Symptomatic RP Attacks, Max: 18.0, 18.0
  Weekly Symptomatic RP Attacks, Mean (SD): 18.00
  Weekly Symptomatic RP Attacks, Median: 18.00
  Weekly Symptomatic RP Attacks, Min: 18.0, 18.0
  Weekly Symptomatic RP Attacks, Q1: 18.00, 18.00
  Weekly Symptomatic RP Attacks, Q3: 18.00, 18.00
